# Where two headings read alike, the source gives them in different places. Numbered stars: 1 amine (or outer) side, 2 acyl side, 3 side chain; on linkers, the order of the positions; unused ones are H or OH. Bridge positions count the residues as written; N and C are the ends. Square brackets hold non-standard residues; d marks the D form. Peptide text beside a SMILES is read from it. * marks the point of attachment. Tridecanoyl(12-Me) = CC(C)CCCCCCCCCCC(=O)*; X1 = NC(=O)CC(O)C(N[*:1])C(=O)[*:2]; NMeF = CN[CH](Cc1ccccc1)C(=O)O; NMeN = CN[CH](CC(N)=O)C(=O)O
# Assays:
# Zymoseptoria tritici [1] = assay: Liquid culture, Zymoseptoria tritici (Septoria tritici), Septoria leaf blotch, 4-5 days; type: cell-based; conditions: Zymoseptoria tritici, read-out: % reduction fungal growth
# Protocol: (§1) Mycelia fragments or conidia suspensions of a fungus, prepared either freshly from liquid cultures of the fungus or from cryogenic storage, were directly mixed into nutrient broth.
# (§2) A stock solution for compound of Formula I(a) and Formula I(b) was produced in DMSO (max. 10 mg/ml), which was diluted with water plus 0.025% Tween®20 to produce a 10× concentrated sample and 10 μl of this solution was pipetted into a microtiter plate (96-well format). The nutrient broth containing the fungal spores/mycelia fragments was then added to give an end concentration of the tested compound. The test plates were incubated in the dark at 24 °C and 96% rh. The inhibition of fungal growth was determined photometrically after 2-7 days, depending on the pathosystem, and percent antifungal activity relative to the untreated check was calculated.
# (§3) The effect of the test compound (Formula I(a), I(b) and Lipopeptin A) was tested against the following fungi under the conditions as outlined above and specifically herein below:
# Zymoseptoria tritici (Septoria tritici)/liquid culture (Septoria leaf blotch) Conidia of the fungus from cryogenic storage were directly mixed into nutrient broth (PDB potato dextrose broth). The inhibition of growth was determined photometrically 4-5 days after application.
# Sclerotinia sclerotiorum = assay: Liquid culture 96-well mixture assay with malonomicin, Sclerotinia sclerotiorum, 72 hrs; type: cell-based; conditions: plate column (1): compound of Formula I(a) alone, dilution series lines A (highest) to G; concentrations in Table 8
# Protocol: (§4) A stock solution for compound of Formula I(a) was produced in DMSO (max. 10 mg/ml). Malonomicin was produced according to Law et al, 2018 (Nature Catalys is |VOL 1|DECEMBER 2018|977-984). A stock solution of malonomicin was produced in water plus 0.025% Tween® 20.
# (§5) Assays to test efficacy of mixtures of the lipopeptide compound of Formula I(a) in combination with malonomicin on the control of fungal pathogens in a liquid culture assay were designed for a 96well plate as outlined in table 1:
# (§6) The 96 well plate design allows to compare disease control of the mixture with disease control of the respective single compound at the same rate.
# (§7) A master plate with 10× concentrated solution of the compound stock solutions diluted in water plus 0.025% Tween® 20 was prepared. The concentration of DMSO (from the stock of compound of Formula (a)) and Tween® 20 was kept constant in all cells of the master plate. 10 μl was transferred from the master plate to a 96well test plate. The nutrient broth containing the fungal spores/mycelia fragments was then added to the test plate to give an end concentration of 1× for the tested compounds (as outlined in Table 8). The test plates were incubated in the dark at 24 °C and 96% rh. The inhibition of fungal growth was determined photometrically after ca 3 days, and percent fungal growth reduction relative to the untreated check was calculated.
# Sclerotinia sclerotiorum (EPPO Code: SCLESC)
# Mycelial fragments of the fungus prepared from a fresh liquid culture were directly mixed into nutrient broth (PDB: potato dextrose broth).
# Glomerella lagenarium = assay: Liquid culture, Glomerella lagenarium (Colletotrichum lagenarium), Anthracnose, 3-4 days; type: cell-based; conditions: Colletotrichum orbiculare, read-out: % reduction fungal growth
# Protocol: as §1, §2, §3
# Glomerella lagenarium (Colletotrichum lagenarium)/Liquid Culture (Anthracnose)
# Conidia of the fungus from cryogenic storage were directly mixed into nutrient broth (PDB potato dextrose broth). The inhibition of growth was measured photometrically 3-4 days after application.
# [2] = system: ROS production induced by flg22; assay: Reactive Oxygen Species (ROS) burst assay with wheat leaf discs; conditions: Triticum aestivum, foliar
# Fusarium culmorum = assay: Liquid culture 96-well mixture assay with malonomicin, Fusarium culmorum, 72 hrs; type: cell-based; conditions: read-out: control of fungal growth (% reduction)
# Protocol: as §4, §5, §6, §7
# Fusarium culmorum (EPPO Code: FUSACU)
# Conidia of the fungus from cryogenic storage were directly mixed into nutrient broth (PDB: potato dextrose broth).
# Zymoseptoria tritici [3] = assay: Leaf painting assay in wheat seedling, Zymoseptoria tritici; type: in vivo, Zymoseptoria tritici on wheat (variety Riband); conditions: for % reduction of fungal growth: middle segment
# Protocol: Wheat seedlings of the variety Riband (for Zymoseptoria tritici trials) or variety Arina (for Puccinia recondite trials) were grown in a glasshouse until 14 d after seeding. At this time, such seedlings usually have a first leaf fully emerged (designated L1), a second leaf fully emerged (L2) and a third leaf (L3) that was partially emerged and in the process of development. Using a permanent pen, two dots were applied on the second leaf such as to generate three segments of roughly equal size: Segment A (at the base), segment B (middle part) and segment C (upper part of the leaf). A stock solution of the test compound was produced in DMSO at a concentration of 10′000 ppm. […] The diluted compound was applied to the middle segment of L2 using a conventional cotton stick; the cotton stick was soaked in the diluted compound and rubbed several times on the adaxial leaf surface between the two marks. 1 day later, the complete plant was inoculated with a fungal spore suspension using a paint brush and application of the spore suspension until before run-off.
# For infection with Zymoseptoria tritici: The test plants were inoculated by spraying a spore suspension on them 1 day after application (1.5Mio spores per ml in water supplemented with 0.01% Tween®20). After an incubation period of 4 days at 22 °C/21 °C. (day/night) and 95% rh, the inoculated test plants were kept at 22 °C/21 °C (day/night) and 70% rh in a greenhouse. Efficacy was assessed by visual evaluation directly when an appropriate level of disease appears on untreated check plants (usually >80% disease cover at 16-19 days after inoculation).
# The three segments of the leaf were evaluated individually.
# Pyricularia oryzae = type: cell-based; conditions: plate column (1): compound of Formula I(a) alone, dilution series lines A (highest) to G; concentrations in Table 8
# [4] = read-out: Fold change (peak ROS)
structure (smiles),measurement,setting,value
CC(C)CCCCCCCCCCC(=O)NC1C(=O)NC(CC(=O)O)C(=O)NC(C(O)CC(N)=O)C(=O)NC(CO)C(=O)N(C)C(CC(N)=O)C(=O)N(C)C(Cc2ccccc2)C(=O)NC(CCC(N)=O)C(=O)NC(CCC(=O)O)C(=O)OC1C (stereo not shown) [Formula I(a)] ({Tridecanoyl(12-Me)}-TD[X1]S[NMeN][NMeF]QE; ester 1-C; configuration not given here),inhibition of growth at 0.41 ppm,Zymoseptoria tritici [1]; Table 2,0%
same,inhibition of growth at 1.2 ppm,Zymoseptoria tritici [1]; Table 2,0%
same,inhibition of growth at 3.7 ppm,Zymoseptoria tritici [1]; Table 2,0%
same,inhibition of growth at 11 ppm,Zymoseptoria tritici [1]; Table 2,70%
same,inhibition of growth at 33 ppm,Zymoseptoria tritici [1]; Table 2,100%
same,inhibition of growth at 100 ppm,Zymoseptoria tritici [1]; Table 2,100%
same,inhibition of growth at 0.41 ppm,Zymoseptoria tritici [1]; Table 3,0%
same,inhibition of growth at 1.2 ppm,Zymoseptoria tritici [1]; Table 3,0%
same,inhibition of growth at 3.7 ppm,Zymoseptoria tritici [1]; Table 3,0%
same,inhibition of growth at 11 ppm,Zymoseptoria tritici [1]; Table 3,70%
same,inhibition of growth at 33 ppm,Zymoseptoria tritici [1]; Table 3,90%
same,inhibition of growth at 100 ppm,Zymoseptoria tritici [1]; Table 3,90%
same,control of fungal growth (% reduction of growth in the test well as compared to untreated check),Sclerotinia sclerotiorum,0%
same,inhibition of growth at 0.41 ppm,Glomerella lagenarium; Table 2,0%
same,inhibition of growth at 1.2 ppm,Glomerella lagenarium; Table 2,0%
same,inhibition of growth at 3.7 ppm,Glomerella lagenarium; Table 2,0%
same,inhibition of growth at 11 ppm,Glomerella lagenarium; Table 2,50%
same,inhibition of growth at 33 ppm,Glomerella lagenarium; Table 2,90%
same,inhibition of growth at 100 ppm,Glomerella lagenarium; Table 2,100%
same,inhibition of growth at 0.41 ppm,Glomerella lagenarium; Table 3,0%
same,inhibition of growth at 1.2 ppm,Glomerella lagenarium; Table 3,0%
same,inhibition of growth at 3.7 ppm,Glomerella lagenarium; Table 3,0%
same,inhibition of growth at 11 ppm,Glomerella lagenarium; Table 3,0%
same,inhibition of growth at 33 ppm,Glomerella lagenarium; Table 3,0%
same,inhibition of growth at 100 ppm,Glomerella lagenarium; Table 3,50%
same,fold induction at 1 ppm,[2]; [4],0.8
same,fold induction at 25 ppm,[2]; [4],0.8
same,fold induction at 100 ppm,[2]; [4],2.7
same,fold induction at 100 ppm,[2]; read-out: increase of ROS production induced by flg22 (factor),≥ 2.7
same,inhibition of growth at 1.56 µg/mL,Fusarium culmorum; I(a) 1.56 ppm,0%
same,inhibition of growth at 3.125 µg/mL,Fusarium culmorum; I(a) 3.125 ppm,0%
same,inhibition of growth at 6.25 µg/mL,Fusarium culmorum; I(a) 6.25 ppm,0%
same,inhibition of growth at 12.5 µg/mL,Fusarium culmorum; I(a) 12.5 ppm,0%
same,inhibition of growth at 25 µg/mL,Fusarium culmorum; I(a) 25 ppm,0%
same,inhibition of growth at 50 µg/mL,Fusarium culmorum; I(a) 50 ppm,0%
same,inhibition of growth at 100 µg/mL,Fusarium culmorum; I(a) 100 ppm,0%
same,% reduction of fungal growth,Zymoseptoria tritici [3]; 20 ppm,0%
same,% reduction of fungal growth,Zymoseptoria tritici [3]; 200 ppm,46%
same,control on the treated area (middle segment),"Zymoseptoria tritici [3]; up to, Table 6, Zymoseptoria tritici",up to 70%
same,control of fungal growth (% reduction of growth in the test well as compared to untreated check),Pyricularia oryzae,20%
